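Abbreviation: GI50, concentration required for 50% inhibition of growth. At the TGI there is no net growth.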
How the values were obtained:
Test in all cases: NCI-60 cell line screen, 384-well format
LOX IMVI melanoma = test system: LOX IMVI melanoma
RXF 393 renal = test system: RXF 393 renal
SNB-19 CNS = test system: SNB-19 CNS
COLO 205 colon = test system: COLO 205 colon
MDA-MB-435 melanoma = test system: MDA-MB-435 melanoma
SK-MEL-5 melanoma = test system: SK-MEL-5 melanoma
SF-295 CNS = test system: SF-295 CNS
MOLT-4 leukemia = test system: MOLT-4 leukemia
HCC-2998 colon = test system: HCC-2998 colon
SNB-75 CNS = test system: SNB-75 CNS
BT-549 breast = test system: BT-549 breast
PC-3 prostate = test system: PC-3 prostate
MDA-MB-231 breast = test system: MDA-MB-231 breast
ACHN renal = test system: ACHN renal
NCI-H226 lung = test system: NCI-H226 lung
HS 578T breast = test system: HS 578T breast
SK-MEL-28 melanoma = test system: SK-MEL-28 melanoma
OVCAR-5 ovarian = test system: OVCAR-5 ovarian
EKVX NSCLC = test system: EKVX NSCLC
NCI/ADR-RES ovarian = test system: NCI/ADR-RES ovarian
786-0 renal = test system: 786-0 renal
HT29 colon = test system: HT29 colon
NCI-H23 lung = test system: NCI-H23 lung
SN12C renal = test system: SN12C renal
A498 renal = test system: A498 renal
NCI-H322M lung = test system: NCI-H322M lung
SR leukemia = test system: SR leukemia
HOP-92 NSCLC = test system: HOP-92 NSCLC
A549 NSCLC = test system: A549 NSCLC
RPMI-8226 leukemia = test system: RPMI-8226 leukemia
HCT-116 colon = test system: HCT-116 colon
U251 glioblastoma = test system: U251 glioblastoma
NCI-H522 lung = test system: NCI-H522 lung
SK-OV-3 ovarian = test system: SK-OV-3 ovarian
TK-10 renal = test system: TK-10 renal
SF-539 CNS = test system: SF-539 CNS
SW-620 colon = test system: SW-620 colon
CCRF-CEM leukemia = test system: CCRF-CEM leukemia
M14 melanoma = test system: M14 melanoma
HCT-15 colon = test system: HCT-15 colon
OVCAR-8 ovarian = test system: OVCAR-8 ovarian
NCI-H460 NSCLC = test system: NCI-H460 NSCLC
OVCAR-3 ovarian = test system: OVCAR-3 ovarian
K-562 leukemia = test system: K-562 leukemia
HL-60(TB) leukemia = test system: HL-60(TB) leukemia
KM12 colon = test system: KM12 colon
HOP-62 NSCLC = test system: HOP-62 NSCLC
UO-31 renal = test system: UO-31 renal
UACC-257 melanoma = test system: UACC-257 melanoma
MDA-MB-468 breast = test system: MDA-MB-468 breast
IGROV1 ovarian = test system: IGROV1 ovarian
MALME-3M melanoma = test system: MALME-3M melanoma
MCF7 breast = test system: MCF7 breast
DU-145 prostate = test system: DU-145 prostate
T-47D breast = test system: T-47D breast
CAKI-1 renal = test system: CAKI-1 renal
OVCAR-4 ovarian = test system: OVCAR-4 ovarian
SF-268 CNS = test system: SF-268 CNS

Structure (SMILES): C[C@H](Nc1ccc(C#N)n(C)c1=O)c1cc2cc(Cl)ccc2[nH]c1=O
- GI50 (LOX IMVI melanoma): 26.4 µM
- TGI (LOX IMVI melanoma): 70.7 µM
- GI50 (RXF 393 renal): 19.1 µM
- TGI (RXF 393 renal): 53 µM
- GI50 (SNB-19 CNS): 41.6 µM
- TGI (SNB-19 CNS): > 100 µM
- GI50 (COLO 205 colon): 61.4 µM
- TGI (COLO 205 colon): > 100 µM
- GI50 (MDA-MB-435 melanoma): 30.6 µM
- TGI (MDA-MB-435 melanoma): 69.6 µM
- GI50 (SK-MEL-5 melanoma): 15.4 µM
- TGI (SK-MEL-5 melanoma): 29 µM
- GI50 (SF-295 CNS): 13.6 µM
- TGI (SF-295 CNS): 36.8 µM
- GI50 (MOLT-4 leukemia): 12.4 µM
- TGI (MOLT-4 leukemia): 25.1 µM
- GI50 (HCC-2998 colon): 16.4 µM
- TGI (HCC-2998 colon): 52.3 µM
- GI50 (SNB-75 CNS): 20.3 µM
- TGI (SNB-75 CNS): 73.7 µM
- GI50 (BT-549 breast): 19.4 µM
- TGI (BT-549 breast): 54.2 µM
- GI50 (PC-3 prostate): 19.9 µM
- TGI (PC-3 prostate): 76.1 µM
- GI50 (MDA-MB-231 breast): 34.5 µM
- TGI (MDA-MB-231 breast): > 100 µM
- GI50 (ACHN renal): 30.8 µM
- TGI (ACHN renal): > 100 µM
- GI50 (NCI-H226 lung): 13 µM
- TGI (NCI-H226 lung): 31 µM
- GI50 (HS 578T breast): 21.4 µM
- TGI (HS 578T breast): 74 µM
- GI50 (SK-MEL-28 melanoma): 36.2 µM
- TGI (SK-MEL-28 melanoma): 94 µM
- GI50 (OVCAR-5 ovarian): 60.8 µM
- TGI (OVCAR-5 ovarian): > 100 µM
- GI50 (EKVX NSCLC): 26.3 µM
- TGI (EKVX NSCLC): > 100 µM
- GI50 (NCI/ADR-RES ovarian): 19.8 µM
- TGI (NCI/ADR-RES ovarian): 48.6 µM
- GI50 ([…]-0 renal): 34 µM
- TGI (786-0 renal): > 100 µM
- GI50 (HT29 colon): 42.6 µM
- TGI (HT29 colon): > 100 µM
- GI50 (NCI-H23 lung): 25.3 µM
- TGI (NCI-H23 lung): 75.8 µM
- GI50 (SN12C renal): 31.4 µM
- TGI (SN12C renal): > 100 µM
- GI50 (A498 renal): 29.6 µM
- TGI (A498 renal): 98 µM
- GI50 (NCI-H322M lung): 33.2 µM
- TGI (NCI-H322M lung): > 100 µM
- GI50 (SR leukemia): 20.1 µM
- TGI (SR leukemia): 39.4 µM
- GI50 (HOP-92 NSCLC): 22.8 µM
- TGI (HOP-92 NSCLC): 90.1 µM
- GI50 (A549 NSCLC): 27.7 µM
- TGI (A549 NSCLC): > 100 µM
- GI50 (RPMI-8226 leukemia): 11.4 µM
- TGI (RPMI-8226 leukemia): 24.4 µM
- GI50 (HCT-116 colon): 29.3 µM
- TGI (HCT-116 colon): > 100 µM
- GI50 (U251 glioblastoma): 31.2 µM
- TGI (U251 glioblastoma): > 100 µM
- GI50 (NCI-H522 lung): 27.6 µM
- TGI (NCI-H522 lung): > 100 µM
- GI50 (SK-OV-3 ovarian): 27.9 µM
- TGI (SK-OV-3 ovarian): > 100 µM
- GI50 (TK-10 renal): 32.5 µM
- TGI (TK-10 renal): > 100 µM
- GI50 (SF-539 CNS): 32.3 µM
- TGI (SF-539 CNS): > 100 µM
- GI50 (SW-620 colon): 52.9 µM
- TGI (SW-620 colon): > 100 µM
- GI50 (CCRF-CEM leukemia): 25.9 µM
- TGI (CCRF-CEM leukemia): 60.7 µM
- GI50 (M14 melanoma): 46 µM
- TGI (M14 melanoma): > 100 µM
- GI50 (HCT-15 colon): 31.4 µM
- TGI (HCT-15 colon): > 100 µM
- GI50 (OVCAR-8 ovarian): 36.2 µM
- TGI (OVCAR-8 ovarian): > 100 µM
- GI50 (NCI-H460 NSCLC): 19.3 µM
- TGI (NCI-H460 NSCLC): 52 µM
- GI50 (OVCAR-3 ovarian): 17.8 µM
- TGI (OVCAR-3 ovarian): 40.7 µM
- GI50 (K-562 leukemia): 35.1 µM
- TGI (K-562 leukemia): > 100 µM
- GI50 (HL-60(TB) leukemia): 20.9 µM
- TGI (HL-60(TB) leukemia): 35.3 µM
- GI50 (KM12 colon): 39.1 µM
- TGI (KM12 colon): > 100 µM
- GI50 (HOP-62 NSCLC): 16.4 µM
- TGI (HOP-62 NSCLC): 42.9 µM
- GI50 (UO-31 renal): 33.8 µM
- TGI (UO-31 renal): > 100 µM
- GI50 (UACC-257 melanoma): 20.6 µM
- TGI (UACC-257 melanoma): 38.4 µM
- GI50 (MDA-MB-468 breast): 12.7 µM
- TGI (MDA-MB-468 breast): 30.1 µM
- GI50 (IGROV1 ovarian): 17 µM
- TGI (IGROV1 ovarian): 42.8 µM
- GI50 (MALME-3M melanoma): 26.7 µM
- TGI (MALME-3M melanoma): 78.8 µM
- GI50 (MCF7 breast): 24 µM
- TGI (MCF7 breast): > 100 µM
- GI50 (DU-145 prostate): 29.4 µM
- TGI (DU-145 prostate): > 100 µM
- GI50 (T-47D breast): 22.2 µM
- TGI (T-47D breast): 86.9 µM
- GI50 (CAKI-1 renal): 31.1 µM
- TGI (CAKI-1 renal): > 100 µM
- GI50 (OVCAR-4 ovarian): 16.1 µM
- TGI (OVCAR-4 ovarian): 49.6 µM
- GI50 (SF-268 CNS): 29.3 µM
- TGI (SF-268 CNS): > 100 µM

— PubChem BioAssay (NCI)
